These results are taken from US11827628B2, “Compositions and methods for inhibition of the JAK pathway” (Rigel Pharmaceuticals, Inc., priority 2005, dated 2023).

SMILES strings stand for the structures. Structures can show the parent of a compound that is named as a salt. Where two headings read alike, the source gives them in different places.

The test system of one test is Primary human T-cells. As to the kind of experiment: Primary Human T-Cell Proliferation Assay Stimulated with IL-2 (CellTiter-Glo). The class given is cell-based. The note with it: read-out: IC50, Example 42. In a few lines:
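IC50 derived from CellTiter-Glo ATP signal after 72 hours of IL-2-driven proliferation at 37° C. Cells: primary human T-cells from blood, stimulated beforehand 3-4 days on anti-CD3/anti-CD28 with IL-2, then rested from IL-2 before compound exposure in duplicate; IL-2-free wells served as unstimulated control.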
(Cellular ATP, detected with luciferase, serves as a proxy for viable cell number.)

Test [1] deals with IL-4 stimulated expression of CD23 in human Ramos B cells (JAK-1 and JAK-3). The test can be described thus: Assay for Ramos B-Cell Line Stimulated with IL-4 (CD23 upregulation, FACS). It counts as cell-based. The note with it: read-out: IC50, Example 41. In a few lines: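 Human Ramos B cells (5×10^4 per point, RPMI 5% serum) pre-incubated 1 h at 37 °C with compound or DMSO, then stimulated with IL-4 at 50 units/mL final for 20-24 h. CD23 upregulation measured by anti-CD23-PE staining and flow cytometry; IC50 derived.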

Setting [2] is: primary human T-cell proliferation stimulated with IL-2.
[3] abbreviates: Ramos B-cell line stimulated with IL-4, CD23 expression by FACS.
[4] abbreviates: primary human T-cells stimulated with IL-2, proliferation.
[5] abbreviates: Ramos B cells stimulated with IL-4, CD23 expression by FACS.

As for `NS(=O)(=O)c1cccc(Nc2ncc(F)c(Nc3ccc(OCc4cccnc4)cc3)n2)c1` [Compound I-188, N2-(3-Aminosulfonylphenyl)-5-fluoro-N4-[4-(3-pyridinyl)methyleneoxyphenyl]-2,4-pyrimidinediamine], the IC50 with Primary human T-cells (setting [2]) turned out to be 64.2 nM; in test [1] (setting [3]), 42.7 nM.
Regarding `Cc1ccc(Nc2ncc(F)c(Nc3ccc(OCc4cccnc4)cc3)n2)cc1S(N)(=O)=O` [Compound I-189, N2-(3-Aminosulfonyl-4-methylphenyl)-5-fluoro-N4-[4-(3-pyridinyl)methyleneoxyphenyl]-2,4-pyrimidinediamine], the IC50 with Primary human T-cells (setting [2]) is 143 nM; in test [1] (setting [3]) it was 137 nM.
As to `CNS(=O)(=O)c1cc(Nc2ncc(F)c(Nc3ccc(OCc4cccnc4)cc3)n2)ccc1C` [Compound I-190, 5-Fluoro-N2-[3-(N-methylaminosulfony)-4-methylphenyl]-5-fluoro-N4-[4-(3-pyridinyl)methyleneoxyphenyl]-2,4-pyrimidinediamine], the IC50 is 242 nM in the test with Primary human T-cells (setting [2]) and 145 nM in test [1] (setting [3]).
Take `CCN(CC)CCNS(=O)(=O)c1ccc(Nc2ncc(F)c(Nc3ccc(OCc4cccnc4)cc3)n2)cc1` [Compound I-191, N2-[4-(2-N,N-Diethylaminoethyl)aminosulfonylphenyl)-5-fluoro-N4-[4-(3-pyridinyl)methyleneoxyphenyl]-2,4-pyrimidinediamine]: the half-inhibitory concentration (IC50) in the test on Primary human T-cells (setting [2]) stood at 292 nM; in test [1] (setting [3]) it was 135 nM.
For the compound `NS(=O)(=O)c1cccc(Nc2ncc(F)c(Nc3ccc(SCc4cccnc4)cc3)n2)c1` [Compound I-192, N2-(3-Aminosulfonylphenyl)-5-fluoro-N4-[4-(3-pyridinyl)-methylenethiophenyl]-2,4-pyrimidinediamine], the IC50 with Primary human T-cells (setting [2]) is 155 nM; in test [1] (setting [3]) it was 137 nM.
For `Cc1ccc(Nc2ncc(F)c(Nc3ccc(OCc4ccncc4)cc3)n2)cc1S(N)(=O)=O` [Compound I-194, N2-(3-Aminosulfonyl-4-methylphenyl)-5-fluoro-N4-[4-(4-pyridinyl)methyleneoxyphenyl]-2,4-pyrimidinediamine], in that order: 99.3 nM and 28.6 nM.
Take `NS(=O)(=O)c1cccc(Nc2ncc(F)c(Nc3ccc(OCc4ccccn4)cc3)n2)c1` [Compound I-196, N2-(3-Aminosulfonylphenyl)-5-fluoro-N4-4-[(2-pyridinyl)methyleneoxyphenyl]-2,4-pyrimidinediamine Hydrochloride Salt]: the IC50 came to 139 nM with Primary human T-cells (primary human T-cell proliferation stimulated with IL-2, Hydrochloride Salt) and 124 nM in test [1] (Ramos B-cell line stimulated with IL-4, CD23 expression by FACS, Hydrochloride Salt).
With `Cc1cc(COc2ccc(Nc3nc(Nc4ccc(C)c(S(N)(=O)=O)c4)ncc3F)cc2)[nH]n1` [Compound I-197, N2-(3-Aminosulfonyl-4-methylphenyl)-5-fluoro-N4-[4-(3-methyl-(1H)-pyrazol-5-yl)methyleneoxyphenyl]-2,4-pyrimidinediamine], the IC50 amounted to 329 nM in the test on Primary human T-cells (setting [2]) and 135 nM in test [1] (setting [3]).
For `Cc1cc(COc2ccc(Nc3nc(Nc4ccc(C)c(S(N)(=O)=O)c4)ncc3F)cc2)n(C)n1` [Compound I-198, N2-(3-Aminosulfonyl-4-methylphenyl)-N4-[4-(1,3-dimethyl-(1H)-pyrazol-5-yl)methyleneoxyphenyl]-5-fluoro-2,4-pyrimidinediamine], in that order: 460 nM and 102 nM.
The matching figures for `Cc1cc(COc2ccc(Nc3nc(Nc4ccc(C)c(S(N)(=O)=O)c4)ncc3F)cc2)n(Cc2ccccc2)n1` [Compound I-199, N2-(3-Aminosulfonyl-4-methylphenyl)-N4-[4-(1-benzyl-3-methyl-(1H)-pyrazol-5-yl)methyleneoxyphenyl]-5-fluoro-2,4-pyrimidinediamine]: 3030 nM and 240 nM.
For the compound `Cc1ccc(Nc2nc(Nc3ccc(S(N)(=O)=O)cc3)ncc2F)cc1OCC(=O)N1CCOCC1` [Compound I-209, N2-(4-Aminosulfonylphenyl)-5-fluoro-N4-[4-methyl-3-(2-morpholinocarbonylmethyleneoxy)phenyl]-2,4-pyrimidinediamine], the IC50 worked out at 4470 nM with Primary human T-cells (setting [2]) and 580 nM in test [1] (setting [3]).
For `Cc1cc(COc2cccc(Nc3nc(Nc4ccc(C)c(S(N)(=O)=O)c4)ncc3F)c2)no1` [Compound I-214], in that order: 1330 nM and 144 nM.
Consider `CNS(=O)(=O)c1cc(Nc2ncc(F)c(Nc3ccc(Cn4ccnc4)cc3)n2)ccc1C` [III-85, 5-Fluoro-N2-[3-(N-methylaminosulfony)-4-methylphenyl]-N4-[4-(1-imidazolylmethyl)phenyl]-2,4-pyrimidinediamine hydrochloride], for which the half-maximal inhibitory concentration (IC50) was found to be 122 nM in the test with Primary human T-cells (primary human T-cell proliferation stimulated with IL-2, hydrochloride) and 72.7 nM in test [1] (Ramos B-cell line stimulated with IL-4, CD23 expression by FACS, hydrochloride).
For the compound `CNS(=O)(=O)c1cc(Nc2ncc(F)c(Nc3ccc(Cn4ccnc4)cc3)n2)ccc1C` [III-86, 5-Fluoro-N2-[3-(N-methylaminosulfony)-4-methylphenyl]-N4-[4-(1-imidazolylmethyl)phenyl]-2,4-pyrimidinediamine dihydrochloride], the IC50 was 93.9 nM in the test with Primary human T-cells (primary human T-cell proliferation stimulated with IL-2, dihydrochloride) and 97.6 nM in test [1] (Ramos B-cell line stimulated with IL-4, CD23 expression by FACS, dihydrochloride).
With `N#CCn1ccc2cc(Nc3nc(Nc4cccc(S(N)(=O)=O)c4)ncc3F)ccc21` [IX-5, N2-(3-Aminosulfonylphenyl)-N4-(1-cyanomethyleneindol-5-yl)-5-fluoro-2,4-pyrimidinediamine], the IC50 in the test on Primary human T-cells (setting [4]) worked out at 73.8 nM; in test [1] (setting [5]) it was 29.6 nM.
On to `N#CCn1ccc2cc(Nc3nc(Nc4ccc(S(N)(=O)=O)cc4)ncc3F)ccc21` [IX-6, N2-(4-Aminosulfonylphenyl)-N4-(1-cyanomethyleneindol-5-yl)-5-fluoro-2,4-pyrimidinediamine], for which the IC50 with Primary human T-cells (setting [4]) was determined as 535 nM; in test [1] (setting [5]) it was 84 nM.
The matching figures for `N#CCn1ccc2cc(Nc3nc(Nc4ccc(Cl)c(S(N)(=O)=O)c4)ncc3F)ccc21` [IX-7, N2-(3-Aminosulfonyl-4-chlorophenyl)-N4-(1-cyanomethyleneindol-5-yl)-5-fluoro-2,4-pyrimidinediamine]: 751 nM and 109 nM.
Regarding `Cc1ccc(Nc2ncc(F)c(Nc3ccc4c(ccn4CC#N)c3)n2)cc1S(N)(=O)=O` [IX-8, N2-(3-Aminosulfonyl-4-methylphenyl)-N4-(1-cyanomethyleneindol-5-yl)-5-fluoro-2,4-pyrimidinediamine], the IC50 with Primary human T-cells (setting [4]) was determined as 124 nM; in test [1] (setting [5]) it was 46.4 nM.
For `Cc1ccc(Nc2ncc(F)c(Nc3ccc4[nH]cc(CC#N)c4c3)n2)cc1S(=O)(=O)NC1CCN(C)CC1` [IX-19, N4-(3-cyanomethylene-1H-indol-5yl)-5-fluoro-N2-[3-(1-methyl-4-aminopiperadine)sulfonyl-4-methylphenyl]-2,4-pyrimidinediamine], in that order: 1600 nM and 118 nM.
The matching figures for `Cc1ccc(Nc2ncc(F)c(Nc3ccc4c(c3)c(CC#N)cn4C)n2)cc1S(N)(=O)=O` [IX-20]: 1790 nM and 122 nM.
The matching figures for `NS(=O)(=O)c1cccc(Nc2ncc(F)c(Nc3ccc(OCC(F)(F)F)cc3)n2)c1` [VI-47, N2-(3-Aminosulfonylphenyl)-5-fluoro-N4-(4-trifluoromethylmethyleneoxyphenyl)-2,4-pyrimidinediamine]: 259 nM and 82.8 nM.
For `C#CCOc1ccc(Nc2nc(Nc3ccc(C)c(S(=O)(=O)NC4CCN(C)CC4)c3)ncc2F)cc1` [VI-69, 5-Fluoro-N2-{[4-methyl-3-((1-methylpiperidin-4-yl)aminosulfonyl)]phenyl} N4-[4-(prop-2-ynyloxy)phenyl]-2,4-pyrimidinediamine], the IC50 in the test on Primary human T-cells (setting [4]) turned out to be 1340 nM; in test [1] (setting [5]) it was 194 nM.

As usually defined, the IC50 is the concentration needed to halve the response being measured.
